Measurements as given in patent publication US12648939B2, “Compounds and methods for treating spasticity” (Lexicon Pharmaceuticals, Inc., priority 2022, dated 2026).

Tests used:
[1] = system: myelin oligodendrocyte glycoprotein (MOG)-induced murine model of experimental autoimmune encephalomyelitis (EAE); experiment: Body weight in MOG-induced EAE model; format: in vivo, C57BL/6J mice; conditions: for BW compared to vehicle group: throughout the study
Description: (§1) The effect of Compound 1 on spasticity was evaluated in a myelin oligodendrocyte glycoprotein (MOG)-induced murine model of experimental autoimmune encephalomyelitis (EAE), a central nervous system (CNS) autoimmune demyelinating disease that mimics many of the clinical and pathologic features of multiple sclerosis. Gilgun-Sherki Y., et al., Neurosciences Research 47:201-207, 2003.
(§2) Study Design and Results. This study used sixty female young adult (10-11 weeks at study initiation) C57BL/6J mice sourced from Envigo RMS (Israel), Ltd. The animals were divided into five experimental groups:
(§3) Each group received a dose volume of 5 ml/kg, and the regimen was performed daily from day 0 to 22 of the study, QD. On study day 21, half of the animals in each group was treated and tested for electrophysiology and electromyography (EMG) two hours post dosing. On study day 22, the same was performed with the remaining half of the animals in each group.
(§4) FIG. 1 provides a representation of the study. Following baseline measurements, the MOG murine model begins with a sensitization period induced by the single subcutaneous (SC) injection of MOG emulsified in Complete Freund's adjuvant (CFA) on Study Day 0, followed by intraperitoneal (IP) supplemental immunostimulation with pertussis toxin (PT) carried out once at the day of EAE induction (study day 0) and once again 48 hours later (on study day 2). […] Mechanical allodynia was tested using the Von Frey test at Baseline and on Day 9 at various timepoints. For evaluation of spasticity, transcranial motor-evoked potentials (tcMEPs) were tested at Baseline and on Days 9 and 21-22 (half of the animals on each day). All animals were administered treatment once daily, starting on Day 0 until Day 22. Animals in Group 1 received oral (PO) treatment with the vehicle. Animals in Group 2 were treated with Fingolimod (FTY720; positive control) at a dose level of 3 mg/kg. PO. Animals in Groups 3 and 4 were treated with the test item Compound 1 at a dose level of 10 mg/kg or 3 mg/kg, PO, respectively. […]

[2] = system: myelin oligodendrocyte glycoprotein (MOG)-induced murine model of experimental autoimmune encephalomyelitis (EAE); experiment: EAE clinical score and AUC; format: in vivo, C57BL/6J mice
Description: as §1, §2
as §4, with “22.” for “22. Animals in Group 1 received oral (PO) treatment with the vehicle. Animals in Group 2 were treated with Fingolimod (FTY720; positive control) at a dose level of 3 mg/kg. PO. Animals in Groups 3 and 4 were treated with the test item Compound 1 at a dose level of 10 mg/kg or 3 mg/kg, PO, respectively.”

[3] = system: myelin oligodendrocyte glycoprotein (MOG)-induced murine model of experimental autoimmune encephalomyelitis (EAE); experiment: Mechanical allodynia evaluation (Von Frey testing) in EAE model; format: in vivo, C57BL/6J mice; conditions: Day 9
Description: as §1, §2
(§5) FIG. 1 provides a representation of the study. Following baseline measurements, the MOG murine model begins with a sensitization period induced by the single subcutaneous (SC) injection of MOG emulsified in Complete Freund's adjuvant (CFA) on Study Day 0, followed by intraperitoneal (IP) supplemental immunostimulation with pertussis toxin (PT) carried out once at the day of EAE induction (study day 0) and once again 48 hours later (on study day 2). […] Mechanical allodynia was tested using the Von Frey test at Baseline and on Day 9 at various timepoints. For evaluation of spasticity, transcranial motor-evoked potentials (tcMEPs) were tested at Baseline and on Days 9 and 21-22 (half of the animals on each day). All animals were administered treatment once daily, starting on Day 0 until Day 22. Animals in Group 1 received oral (PO) treatment with the vehicle. Animals in Group 2 were treated with Fingolimod (FTY720; positive control) at a dose level of 3 mg/kg. PO. Animals in Groups 3 and 4 were treated with the test item Compound 1 at a dose level of 10 mg/kg or 3 mg/kg, PO, respectively. Animals in Group 5 were treated with Tizanidine at a dose level of 1 mg/kg, IP.
Mechanical Allodynia Evaluation (Von Frey Testing): Animals were tested for mechanical allodynia using the Von Frey test at Baseline, and then on Day 9 at 0.5 hours ([…]), 1.5 hours, 3.5 hours (all groups) and 5.5 hours (Groups 1-4 only) post-dose.

[4] = system: myelin oligodendrocyte glycoprotein (MOG)-induced murine model of experimental autoimmune encephalomyelitis (EAE); experiment: Electrophysiology (EMG, transcranial motor-evoked potentials) in EAE model; format: in vivo, C57BL/6J mice; conditions: for latency / latency until reaching the main event / peak-to-peak (P2P) amplitude: Day 10; for latency: vehicle 6.94±0.59 ms; for latency until reaching the main event: vehicle 10.05±2.59 ms; for peak-to-peak (P2P) amplitude: vehicle 7681.17±1505.12 μV; for rate of fibrillation (EMG): Day 21, vehicle printed 1.11±4.69 Hz
Description: as §1, §2, §3, §5
Electrophysiology: The animals were subjected to electrophysiology testing at Baseline and Days 10 and 21 of the study. The EMG, latency, latency to main event, duration, peak-to-peak (P2P) amplitude, and number of subpeaks were recorded.

[5] = system: rat model of spasticity induced by complete spinal cord transection; experiment: Rate-dependent depression (RDD) of the H-reflex in SCI rats; format: in vivo; conditions: for mean relative amplitudes of the H-reflex (RDD), effect on spasticity / mean relative amplitudes of the H-reflex (RDD): SCI rats 5 weeks after injury; for duration of action (H-reflex RDD): recordings up to 6 hours
Description: (§6) The efficacy of Compound 1 was measured in a rat model of spasticity induced by complete spinal cord transection. To induce muscle spasticity, a model of complete spinal cord transection cord at the eighth thoracic (T8) vertebral level was used. Five weeks after the Spinal Cord Injury (SCI), the rats were orally (P.O.) treated with Compound 1 (3, 10, or 30 mg/kg), Baclofen (4.5 mg/kg). Tizanidine (3 mg/kg) or vehicles alone (0.9% NaCl, Compound 1 vehicle), and the degree of spasticity response was measured using the rate-dependent depression (RDD) of the Hoffmann's reflex (H-reflex) and spasms induction.
(§7) Materials and Methods. […] One hundred and fifty-one SCI rats were maintained up to the end of the 5th post-injury week. One hundred and forty rats were submitted to P.O. administration of the test compounds and EMG analysis.
(§8) The rat was firmly restrained to immobilize the head. In an upright position, the gavage needle was passed along the side of the mouth. Following the roof of the mouth, the needle was advanced into the esophagus and toward the stomach. After the needle is passed to the correct length, the compound was slowly injected. The rats were randomly assigned to one of the test groups:
(§9) Electroneuromyographical recordings were performed in the right hind limbs before and 1, 2, 3, 4, 5 and 6 hours after P.O. administration.
(§10) Electromyographical (EMG) signals were amplified (100×) and bandpass filtered (300 Hz to 5 kHz; A-M Systems Amplifier. Everett, Washington; model 1700) before sampling at 13.5 kHz (Digidata 1440A, Molecular Devices). The tibial nerve was stimulated by using square pulses with increasing stimulus intensities (0.2 mA increments starting from 0.2 mA, 0.2 Hz, 0.2 ms; A-M systems stimulator, Model 2100) to obtain recruitment curves.
RDD of the H-reflex: To induce sedation, intraperitoneal injection of ketamine (100 mg/kg; Imalgen®) was used to suppress voluntary movements and increase muscle tone. Rats thorax and hindlimbs were secured on a heating pad with adhesive tape. The following series of measurements were repeated throughout the experiment: • 1. Hmax and Mmax determination: the tibial nerve was stimulated for 0.2 ms at 0.2 Hz with increasing current intensities (1-6 mA in 0.1 mA increments) until Mmax was stabilized. • 2. RDD measurement: the intensity necessary to obtain a maximal H-reflex was used for trains of 13 stimulations at 0.2, 1, 2 and 5 Hz with 2 min intervals between each train of stimulations. A whole series of measurements lasted about 15 minutes. • 3. Determination of the level of RDD: at the different frequencies, responses to the first three stimulations necessary for the depression to occur were discarded, and all the responses were expressed as percentages relative to the mean response at 0.2 Hz in the same series of measurements.
(§11) Data analysis: H-reflex RDDs and areas under the curves (AUC) were determined as a measurement of spasticity and analyzed at each time point and for each frequency with Mann-Whitney test or with Kruskal Wallis one-way analysis of variance (ANOVA) test, followed by Dunn's multiple comparisons test. P<0.05 was considered significant. Significant differences were marked with asterisks (*) according to their respective P-values: values were expressed as the mean value±standard error of the mean (SEM) in all graphs. All statistical analyses were performed using GraphPad Prism 7 (San Diego, California, USA).
Modulation of the RDD of the H-reflex. The Hoffmann reflex was used to assess primary (type 1a) afferents-mediated motoneuronal excitability in rats suffering from spasticity. Electromyograms typically show two responses: an initial M wave (FIG. 6B) resulting from the direct activation of motor axons (FIG. 6A-1), and a delayed H wave (FIG. 6B) resulting from the monosynaptic activation of motoneurons by the afferents (FIG. 6A-2). […]

[6] = system: rat model of spasticity induced by complete spinal cord transection; experiment: Muscle spasms evoked by tibial nerve stimulation in chronic SCI rats; format: in vivo; conditions: for duration of action (muscle spasms): recordings up to 6 hours
Description: as §6, §7, §8, §9, §10
Muscles spasms: In awake chronic SCI rats, muscle spasms were evoked with stimulation of the tibial nerve while performing electromyographic (EMG) recordings from the flexor digitorum brevis (FDB) muscle. Spastic spinal rats were handled nine days before the experiment and progressively habituated to be individually constrained in a plexiglass tube and to immobilization of their paralyzed hindlimbs with tape. • 1. Hmax and Mmax determination: the tibial nerve was stimulated for 0.2 ms at 0.2 Hz with increasing current intensities (1-6 mA in 0.2 mA increments) until Mmax was stabilized. • 2. A supramaximal single-pulse stimulation to elicit muscle spasms was fixed throughout the experiment (2 or 3 times the threshold intensity for M-wave) and evoked 5 times, with 60 s interstimulus intervals. EMG were rectified and averaged over 2000 ms interval post-stimulus to quantify spasms (Clamplit 8.0, Axon Instruments).
as §11
Modulation of Muscle Spasms. When the tibial nerve was stimulated in acutely (1 week after injury) injured rats, little reflexes were evoked in the FDB muscle (FIG. 8A), regardless of the stimulation intensity. In contrast, stimulation of the tibial nerve in chronic (5 weeks after injury) SCI rats produced more (P<0.0001; Mann-Whitney test; FIG. 8C) long-lasting muscle contractions (FIG. 8B). This effect is a reliable correlate of the development of spasticity. In spastic rats, spasms were induced through the FDB muscle after electrical stimulation of the tibial nerve. […]

[7] = both dose levels (10 and 3 mg/kg PO QD)

## CC(C)C[C@](C)(N)COc1ccc(-c2ccnc(C(F)F)c2)nc1C(F)F [Compound 1, (S)-1-((2′,6-bis(difluoromethyl)-[2,4′-bipyridin]-5-yl)oxy)-2,4-dimethylpentan-2-amine]
[1]; 3 mg/kg PO QD
  BW compared to vehicle group: not significantly different from the vehicle group
[1]; 10 mg/kg PO QD
  BW compared to vehicle group: not significantly different from the vehicle group
[2]; 10 mg/kg or 3 mg/kg PO QD
  clinical score compared to the vehicle: did not result in a significant reduction
[3]; 3 mg/kg PO, all timepoints post dosing
  withdrawal force threshold compared to the vehicle-treated group: higher withdrawal force threshold compared to the vehicle-treated group
[3]; 10 mg/kg PO, 1.5 hours post dosing, vehicle 0.89±0.11 g
  withdrawal force threshold (Von Frey): 1.48 ± 0.10 g
[3]; 10 mg/kg PO, 3.5 hours post dosing, vehicle 0.78±0.06 g
  withdrawal force threshold (Von Frey): 1.36 ± 0.09 g
[3]; 10 mg/kg PO, 5.5 hours post dosing, vehicle 0.82±0.08 g
  withdrawal force threshold (Von Frey): 1.52 ± 0.13 g
[4]; 3 mg/kg PO QD
  latency: 5.31 ± 0.21 ms
  latency until reaching the main event: 5.32 ± 0.22 ms
  peak-to-peak (P2P) amplitude: 11321.67±1321.68 μV
  rate of fibrillation (EMG): 0.38±0.38 Hz
[4]; 10 mg/kg PO QD
  latency: 5.54 ± 0.22 ms
  peak-to-peak (P2P) amplitude: 11613.75±1154.41 μV
  rate of fibrillation (EMG): 1.22±0.57 Hz
[4]; [7]
  duration compared to vehicle treated animals: reduced
  number of sub potentials compared to vehicle treated animals: reduced
[5]; single P.O. 3 mg/kg
  mean relative amplitudes of the H-reflex (RDD), effect on spasticity: did not appear to affect spasticity
[5]; single P.O. 10 mg/kg
  onset of action (H-reflex RDD): 1 h
  mean relative amplitudes of the H-reflex (RDD): significantly reduced
  duration of action (H-reflex RDD): at least 6 hour
[5]; single P.O. 30 mg/kg
  onset of action (H-reflex RDD): 1 h
  mean relative amplitudes of the H-reflex (RDD): significantly reduced
  duration of action (H-reflex RDD): at least 6 hours
[6]; single P.O. 3 mg/kg
  onset of action (muscle spasms): 1 h
  duration of action (muscle spasms): 5 h
[6]; single P.O. 10 mg/kg
  onset of action (muscle spasms): 1 h
  duration of action (muscle spasms): 3 h
[6]; single P.O. 30 mg/kg
  onset of action (muscle spasms): 1 h
  duration of action (muscle spasms): 5 h
[6]; single P.O., all tested dosages (3, 10, 30 mg/kg), n=10
  muscle spasms (AUC): significantly reduced

## Clc1ccc2nsnc2c1NC1=NCCN1 [Tizanidine, reference compound]
[1]; 1 mg/kg IP QD, Day 16, vehicle 82.06±2.35%
  mean BW presented as percentage from Baseline: 91.31±1.59%
[2]; 1 mg/kg IP QD
  clinical score compared to the vehicle: did not result in a significant reduction
[3]; 1 mg/kg IP, 3.5 hours post dosing, vehicle 0.78±0.06 g
  withdrawal force threshold (Von Frey): 1.32 ± 0.15 g
[3]; 1 mg/kg IP, all timepoints (0.5, 1.5, and 3.5 hours) post-dose
  withdrawal force threshold compared to vehicle: higher withdrawal force threshold
[4]; 1 mg/kg IP QD
  latency until reaching the main event: 5.64 ± 0.19 ms
  peak-to-peak (P2P) amplitude: 13488.71±1234.10 μV
[5]; single P.O. 3 mg/kg
  maximum effect, time (H-reflex RDD): 2 h
  onset of action (H-reflex RDD): 2 h
  mean relative amplitudes of the H-reflex (RDD), effect on spasticity: significantly reduced
[6]; single P.O. 3 mg/kg
  maximum effect, time (muscle spasms): 3 h
  muscle spasms (AUC): reduced
  onset of action (muscle spasms): 2 h
